Literature values in patent US11311556B2, “Topical dutasteride emulsions for treating endocrine therapy-induced alopecia” (Varsona Therapeutics, Inc., priority 2020, dated 2022).
Like-named read-outs stand apart in the source and are kept apart here.

Legend:
[1] = 416 men, 12 to 24 weeks
DHT = settings: oral, subjects with BPH

Q: For `C[C@]12C=CC(=O)N[C@@H]1CC[C@@H]1[C@@H]2CC[C@]2(C)[C@@H](C(=O)Nc3cc(C(F)(F)F)ccc3C(F)(F)F)CC[C@@H]12` [oral dutasteride, (5α, 17β)-N-{2,5 bis(trifluoromethyl)phenyl}-3-oxo-4-azaandrost-1-ene-17-carboxamide], which “Hair count results versus oral finasteride” value [1] is on record?
A: better hair count results than oral finasteride

Q: And the DHT blocked (DHT; 0.5 mg daily dose)?
A: 94.7+/−3.3%

Q: And the DHT blocked (DHT; 5 mg daily dose)?
A: 98.4%

Q: With `CC(C)(C)NC(=O)[C@H]1CC[C@H]2[C@@H]3CC[C@H]4NC(=O)C=C[C@]4(C)[C@H]3CC[C@]12C` [oral finasteride, finasteride] as the compound, how does the DHT blocked (DHT; 5 mg daily dose) read?
A: 70.8+/−18.3%
